# In patent US20090170773A1, “NOVEL USE OF G-PROTEIN-CONJUGATED RECEPTOR AND LIGAND THEREOF” (RIKEN, priority 2006, published 2009):
# Key:
# RAIG3 = target: T1, RAIG3 (Homo sapiens, UniProt Q9NQ84); assay: Insulin secretion in MIN6 cells having RAIG3 expressed forcibly (ELISA); format: cell-based; conditions: 0.6 mM 1,5-AG added to 2.8 mM glucose, FIG. 2b
# T1 construct: expressed in transfected cells; host or cells: mouse insulinoma MIN6 cells, transient transfection with pIRES2-EGFP (CLONTECH) vector
# T1 sequence (Q9NQ84 1-453 isoform Q9NQ84-2): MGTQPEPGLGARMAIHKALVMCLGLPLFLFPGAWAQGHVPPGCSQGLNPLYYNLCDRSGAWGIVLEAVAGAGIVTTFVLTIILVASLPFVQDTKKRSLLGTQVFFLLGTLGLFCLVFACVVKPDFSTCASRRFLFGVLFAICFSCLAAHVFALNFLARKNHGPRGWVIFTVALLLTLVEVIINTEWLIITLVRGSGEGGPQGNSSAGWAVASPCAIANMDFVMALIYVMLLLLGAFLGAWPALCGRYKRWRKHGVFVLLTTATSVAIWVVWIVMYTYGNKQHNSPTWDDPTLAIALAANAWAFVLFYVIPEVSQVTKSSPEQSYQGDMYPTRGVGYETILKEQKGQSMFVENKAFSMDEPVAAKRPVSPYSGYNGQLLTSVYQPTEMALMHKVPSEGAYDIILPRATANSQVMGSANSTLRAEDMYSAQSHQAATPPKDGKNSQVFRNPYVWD
# Procedure: (§1) Mouse insulinoma MIN6 cells (supplied by Dr. Junichi Miyazaki at the Division of Stem Cell Regulation Research, Department of Molecular Therapeutics, G6 Division of Pathophysiology and Therapeutics, Osaka University Graduate School of Medicine) were cultured in a 24-well plate containing a DMEM comprising 15% fetal calf serum (inactivated by treatment at 56° C. for 30 minutes), 5 μl/l β-mercaptoethanol and 4.5 g/l glucose, in an atmosphere of 5% CO2/95% air, at 37° C. and low density. cDNAs of RAIG2 and RAIG3 were obtained from a human brain or liver cDNA library by a conventional method of PCR. This was inserted into pIRES2-EGFP (CLONTECH). After 24 hours, the above-described cells were transfected with an expression vector containing the RAIG2 or RAIG3 cDNA. The transfection was performed using Lipofectamin 2000 (Invitrogen), as directed in the manufacturer's manual. After 48 hours of further cultivation, the cells were retained in a KRBB solution [129 mM NaCl, 4.8 mM KCl, 1.2 mM MgSO4, 1.2 mM KH2PO4, 4.8 mM NaHCO3, 10 mM HEPES, 2.5 mM CaCl2, 0.2% bovine serum albumin (pH adjusted to 7.4)] containing 2.8 mM glucose at 37° C. for 15 minutes, and then washed. […] Each 10 μl portion of the culture supernatant was taken, and the insulin content was measured by ELISA.
# RAIG2 = target: T2, RAIG2 (Homo sapiens, UniProt Q9NZH0); assay: Insulin secretion in MIN6 cells having RAIG2 expressed forcibly (ELISA); format: cell-based, mouse; conditions: 0.6 mM 1,5-AG added to 2.8 mM glucose, FIG. 2a
# T2 construct: expressed in transfected cells; host or cells: mouse insulinoma MIN6 cells, transient transfection with pIRES2-EGFP (CLONTECH) vector
# T2 sequence (Q9NZH0 29-403): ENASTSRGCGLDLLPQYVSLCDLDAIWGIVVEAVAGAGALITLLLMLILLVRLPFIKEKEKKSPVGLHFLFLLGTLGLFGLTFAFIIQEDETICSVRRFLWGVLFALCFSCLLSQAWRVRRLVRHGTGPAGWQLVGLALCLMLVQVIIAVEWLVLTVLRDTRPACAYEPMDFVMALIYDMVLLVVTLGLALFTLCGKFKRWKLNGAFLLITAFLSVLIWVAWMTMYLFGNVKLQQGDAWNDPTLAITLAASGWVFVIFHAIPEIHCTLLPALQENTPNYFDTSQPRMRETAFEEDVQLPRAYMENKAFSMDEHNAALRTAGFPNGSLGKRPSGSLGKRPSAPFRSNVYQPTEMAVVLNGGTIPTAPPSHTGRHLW
# Procedure: as §1
smiles,measurement,setting,value
"OC[C@H]1OC[C@H](O)[C@@H](O)[C@@H]1O [1,5-AG, 1,5-anhydroglucitol]",insulin release,RAIG3,insulin release equivalent to that with 20 mM glucose
same,insulin release,RAIG2,insulin release equivalent to that with 20 mM glucose
